Data set [1] can be described thus: Tissue and organ histopathology after oral gavage in CD-1 mice (Example 7). The following applies: daily oral gavage 500 mg/kg for one month, in words. Type of data set: in vivo. As for the experimental part: Groups of 7-8 week old male CD-1 mice were given an oral gavage dose once daily for 4 weeks of 500 mg/kg of Ionis SMAD7 oligonucleotides. Each group contained 8 mice. One group of male CD-1 mice was administered saline by oral gavage daily.
Histopathology evaluations were performed on the mice treated with Ionis oligonucleotides to evaluate any tissue damage in the liver (with gallbladder), kidneys, heart, spleen, thymus, mesenteric lymph nodes, and different parts of the GI tract, including duodenum, ileum, and colon (proximal and distal). Tissues were collected and fixed in 10% neutral-buffered formalin, embedded in paraffin, sectioned, and stained with hematoxylin and eosin. All the tissues were histologically unremarkable in all mice.

The subject of the next data set is human SMAD7 mRNA. The data set can be described thus: Dose-dependent inhibition of human SMAD7 mRNA expression in A431 cells, oligonucleotide added without transfection (Example 5, Study 1). The data set is classed as cell-based. The following applies: SMAD7 mRNA, in words. As for the experimental part: The newly designed compounds disclosed herein are cEt-modified antisense oligonucleotides. […] The studies described below show a comparison of select cEt-modified gapmers and ION0736697/Mongersen.
A431 cells were plated in collagen I-coated 96-well plates in DMEM with […]. Immediately after plating, 0.08 μM, 0.25 μM, 0.74 μM, 2.22 μM, 6.67 μM, or 20.00 μM concentrations of antisense oligonucleotide were added. The plates were shaken briefly before incubating at 37° C. and 10% CO2. After a treatment period of approximately 48 hours, the cells were washed and lyzed and RNA on 384-well Pall plates with DNase I treatment. SMAD7 mRNA levels were measured by quantitative real-time PCR. Primer probe set RTS5062 was used to measure human SMAD7 mRNA levels. SMAD7 mRNA levels were adjusted according to total RNA content, as measured by RIBOGREEN®. Results are presented as percent inhibition of SMAD7 mRNA expression, relative to untreated control cells.
All Ionis oligonucleotides had greater potency than ION 736697/Mongersen.

Data set [2] in a line: Plasma chemistry markers after oral gavage in beagle dogs (Example 12). The following applies: 200 mg by oral gavage for 4 weeks, day 30, in words.
Method: The study was conducted to evaluate the tolerability and pharmacodynamics of select human SMAD7 antisense oligonucleotides in beagle dogs following 4 weeks of treatment. The dogs were administered oligonucleotides by oral gavage.
(§1) Groups of 24-25 week old male beagle dogs were administered 200 mg Ionis human SMAD7 oligonucleotide by oral gavage once a week for 4 weeks. There were 4 animals per group. A control group of dogs received oral administration of distilled water. Dogs were sacrificed on day 30 approximately 48 hours after the final dose and organs and plasma were harvested for further analysis.
To evaluate the effect of Ionis SMAD7 oligonucleotides on liver and kidney function, approximately 1.5 mL of blood samples were collected and put into tubes without anticoagulant for serum separation. The tubes were kept at room temperature for a minimum of 90 min and then centrifuged (approximately 3,000 rpm for 10 min) to obtain serum. Plasma levels of transaminases, albumin, bilirubin, and BUN were measured using an automated clinical chemistry analyzer (Toshiba 200FR Neo chemistry analyzer, Toshiba Co., Japan).
The subject of data set [3] is mouse Smad7 mRNA. The data set can be described thus: Murine Smad7 mRNA expression after subcutaneous administration in BALB/c mice (Example 10). The data set is classed as in vivo. The conditions noted are these: 50 mg/kg subcutaneous once a week for 4 weeks, 24 hours after last dose. As for the experimental part:
The objective of this study was to evaluate the efficacy of Ionis SMAD7 antisense oligonucleotides compared to ION 736697/Mongersen in BALB/c mice following 4 weeks of treatment. Both ION 830025 and ION 798781 are cross-reactive with mouse Smad7 mRNA.
Groups of BALB/c mice were subcutaneously administered 50 mg/kg of Ionis SMAD7 oligonucleotides once a week for 4 weeks. Each group contained 4 mice. One group of mice was administered PBS once a week for 4 weeks. […]

A short description of data set [4]: Organ weights after oral gavage in beagle dogs (Example 12). The conditions noted are these: 200 mg by oral gavage for 4 weeks, day 30, in words.
Method: as §1
Data set [5] can be described thus: Plasma chemistry markers after subcutaneous administration in beagle dogs (Example 8). The conditions noted are these: 30 mg/kg subcutaneously, day 31, in words.
Method: Groups of 24-25 week old male beagle dogs were injected subcutaneously with 30 mg/kg ION Ionis oligonucleotide. There were 4 animals per group. Dogs were injected every two days for the first week (day 1, 3, and 5) and once weekly thereafter (days 8, 15, 22, and 29). A control group of dogs received subcutaneous injections of PBS. Dogs were sacrificed on day 31 approximately 48 hours after the final dose and organs and plasma were harvested for further analysis.
To evaluate the effect of Ionis SMAD7 oligonucleotides on liver and kidney function, plasma levels of transaminases, albumin, creatine and BUN were measured using an automated clinical chemistry analyzer (Toshiba 200FR Neo chemistry analyzer, Toshiba Co., Japan).
A short description of data set [6]: Pharmacokinetics: oligonucleotide concentration in tissues after oral gavage in beagle dogs (Example 12). The data set is classed as in vivo. The conditions noted are these: for Tissue accumulation of oligonucleotide: 200 mg by oral gavage for 4 weeks, in words. As for the experimental part: There were 4 animals per group.
Canine tissue exposure following oral administration of the Ionis SMAD7 oligonucleotides was measured in various organs and intestinal tissues.
Plasma concentrations of Ionis oligonucleotides were also measured on Day 28 at various time points.

For the next data set, the system named is murine Smad7 mRNA. The data set can be described thus: Dose-dependent inhibition of murine Smad7 mRNA in bEND cells, electroporation (Example 5, Study 2). Type of data set: cell-based, mouse. The conditions noted are these: in words. As for the experimental part:
Many of the Ionis designed oligonucleotides as well as ION 736697/Mongersen are complementary to mouse Smad7 mRNA. […] After a treatment period of approximately 16 hours, the cells were washed and lyzed and RNA on 384-well Pall plates with DNase I treatment. Smad7 mRNA levels were measured by quantitative real-time PCR. Primer probe set RTS1114 (forward sequence […], designated herein as SEQ ID NO: 8; reverse sequence […], designated herein as SEQ ID NO: 9; probe sequence […], designated herein as SEQ ID NO: 10) was used to measure murine Smad7 mRNA levels. Smad7 mRNA levels were adjusted according to total RNA content, as measured by RIBOGREEN®. Results are presented as percent inhibition of Smad7 mRNA expression, relative to untreated control cells.
Many of the Ionis oligonucleotides had greater potency than ION 736697/Mongersen.

Data set [7] relates to mouse Smad7 mRNA. The data set can be described thus: Pharmacology: mouse Smad7 mRNA expression in liver, kidney, duodenum, ileum and colon after subcutaneous administration in CD-1 mice (Example 6). The data set is classed as in vivo. The following applies: 50 mg/kg subcutaneously twice a week for 7 weeks, in words. As for the experimental part: Groups of 8-9 week old male CD-1 mice were injected subcutaneously twice a week for 7 weeks with 50 mg/kg of Ionis oligonucleotides (100 mg/kg/week dose). Each group contained 4 mice. One group of male CD-1 mice was injected subcutaneously twice a week for 7 weeks with PBS. Plasma was collected for analysis on day 28.
The pharmacological activity of the Ionis oligonucleotides in mice was assessed by measuring mouse Smad7 mRNA expression in liver, kidney, duodenum, ileum, and colon at necropsy.
Tissue samples from all mice were analyzed for Smad7 mRNA expression using the primer probe set HTS7555 (forward sequence […], designated SEQ ID NO: 2737; reverse sequence […], designated SEQ ID NO: 2738; probe sequence […], designated SEQ ID NO: 2739), which was normalized to mRNA levels of the housekeeping gene, GAPDH. One-way ANOVA with Dunnet's comparison test was used for statistical analysis.

In data set [8] the test system is mouse Smad7 mRNA. As to the kind of experiment: Murine Smad7 mRNA expression after oral administration in BALB/c mice (Example 11). The following applies: orally 500 mg/kg/day for 3 weeks, in words. Type of data set: in vivo. As for the experimental part: The objective of this study was to evaluate the efficacy of Ionis SMAD7 antisense oligonucleotides in BALB/c mice following daily oral administration. The Ionis oligonucleotides are cross-reactive with mouse Smad7 mRNA.
Groups of BALB/c mice were orally administered 500 mg/kg/day for 3 weeks of human Smad7 oligonucleotides, ION 790615, ION 798781, or ION 830025, or mouse Smad7 oligonucleotide, ION 772797 (a 3-10-3 cEt gapmer with phosphorothioate backbone and sequence […]; designated herein as SEQ ID NO: 2743). One group of mice was orally administered PBS daily for 3 weeks. Each group contained 4 mice.
To evaluate the efficacy of the oligonucleotides, murine Smad7 mRNA expression in the liver, kidneys, duodenum, ileum, and colon was measured using primer probe set RTS1114.

In data set [9] the test system is human peripheral blood mononuclear cells (PBMCs). The data set can be described thus: Human PBMC activation assay, cytokine levels (IL-10, IL-6, MCP-1, TNF-α) in supernatant after 24 hours (Example 9). The following applies: human PBMCs, 24 hours, in words.
Method: Ionis SMAD7 oligonucleotides were tested in an in vitro assay for potential immunostimulatory properties in an in vitro human peripheral blood mononuclear cell (PBMC) activation assay.
Blood samples were collected from healthy human volunteers in heparinized vials and mixed well. Human PBMCs were isolated by gradient centrifugation using Ficoll-Histopaque. The cells were washed, counted and resuspended in medium. The PBMCs were plated in a 24-well culture plate and various concentrations of oligonucleotides were added to the media. An oligonucleotide historically known to promote an inflammatory response was used as a positive control, whereas an oligonucleotide known not to be pro-inflammatory was used as a negative control. […] The supernatants were collected after 24 hours and analyzed for cytokine levels using MSD platform.

The values below come from patent US10517889B2, “Modulators of SMAD7 expression” (Ionis Pharmaceuticals, Inc., priority 2017, dated 2019).

Consider “ION 798781 (CGTAAGATTCACAGCA; 3-10-3 cEt gapmer, further chemistry not given here)”, for which the “Histopathology: oligonucleotide-related tissue alterations” value in data set [1] is “not associated with any antisense oligonucleotide-related tissue alterations”. In addition, in the data set on human SMAD7 mRNA, the “Potency/efficacy compared with ION 736697/Mongersen” value is listed as “more efficacious than ION 736697/Mongersen”. The “Tolerability (plasma chemistry markers)” value in [2] is given as “very well tolerated”. In the data set on mouse Smad7 mRNA [3], the “Mouse Smad7 mRNA expression (% inhibition), Colon” value is on record as 41 % inhibition; the “Mouse Smad7 mRNA expression (% inhibition), Duodenum” value was 27 % inhibition; the “Mouse Smad7 mRNA expression (% inhibition), Ileum” value worked out at 22 % inhibition; the “Mouse Smad7 mRNA expression (% inhibition), Kidney” value was 11 % inhibition. Further, the “Mouse Smad7 mRNA expression (% inhibition), Liver” value in the data set on mouse Smad7 mRNA [3] is reported as 36 % inhibition. For the same substance, in data set [4], the “Tolerability (organ weights)” value is “very well tolerated”. Also, the “Tolerability (plasma chemistry markers)” value in data set [5] is “well tolerated”. For the same substance, the “Tissue accumulation of oligonucleotide” value in data set [6] was “higher accumulation in the liver and kidneys”. Also, in data set [6] (200 mg oral gavage for 4 weeks), the “Oligonucleotide concentration in tissues, Duodenum” value came out at 0.6 µg/g; the “Oligonucleotide concentration in tissues, Ileum” value amounted to 0.5 µg/g; the “Oligonucleotide concentration in tissues, Kidney” value stood at 108.1 µg/g; the “Oligonucleotide concentration in tissues, Liver” value came out at 12.9 µg/g. Moreover, the “Oligonucleotide concentration in tissues, Proximal colon” value in data set [6] (200 mg oral gavage for 4 weeks) came to 0.1 µg/g. Further, the “Potency compared with ION 736697/Mongersen” value with murine Smad7 mRNA is on record as “more potent than ION 736697/Mongersen”.

For “ION 830025 (antisense TTTGTAAATCGAAAGC; 3-10-3 cEt gapmer, phosphorothioate, further chemistry not given here) [sodium salt]”, the “Histopathology: oligonucleotide-related tissue alterations” value in data set [1] is reported as “not associated with any antisense oligonucleotide-related tissue alterations”. Further, the “Smad7 mRNA reduction in tissues” value with mouse Smad7 mRNA [7] was “significant Smad7 mRNA reduction in various tissues”. For the same substance, in the data set with mouse Smad7 mRNA [8], the “Efficacy in reducing Smad7 mRNA expression” value is reported as “efficacious in reducing Smad7 mRNA expression”. Further, the “Potency/efficacy compared with ION 736697/Mongersen” value in the data set with human SMAD7 mRNA was “more efficacious than ION 736697/Mongersen”. For the same substance, the “Cytokine and chemokine production (immunostimulatory profile)” value in data set [9] was “minimal cytokine and chemokine production which was similar or less than the negative control ASO”. Besides, the “Tolerability (plasma chemistry markers)” value in data set [2] is on record as “very well tolerated”. In addition, in the data set with mouse Smad7 mRNA [3], the “Mouse Smad7 mRNA expression (% inhibition), Colon” value worked out at 32 % inhibition; the “Mouse Smad7 mRNA expression (% inhibition), Duodenum” value came to 26 % inhibition; the “Mouse Smad7 mRNA expression (% inhibition), Ileum” value is reported as 14 % inhibition; the “Mouse Smad7 mRNA expression (% inhibition), Kidney” value stood at 5 % inhibition. Further, the “Mouse Smad7 mRNA expression (% inhibition), Liver” value in the data set on mouse Smad7 mRNA [3] worked out at 46 % inhibition. Also, the “Tolerability (organ weights)” value in data set [4] is “very well tolerated”. Moreover, the “Tolerability (plasma chemistry markers)” value in [5] is reported as “well tolerated”. Besides, in data set [6], the “Tissue accumulation of oligonucleotide” value is “Distal colon accumulation was detected”. Also, in data set [6] (200 mg oral gavage for 4 weeks, distal colon), the “Oligonucleotide concentration in tissues, Distal colon” value was 0.1 µg/g. Further, in [6] (200 mg oral gavage for 4 weeks), the “Oligonucleotide concentration in tissues, Duodenum” value stood at 0.8 µg/g; the “Oligonucleotide concentration in tissues, Ileum” value was determined as 0.3 µg/g; the “Oligonucleotide concentration in tissues, Kidney” value amounted to 48.1 µg/g; the “Oligonucleotide concentration in tissues, Liver” value came to 7.8 µg/g. Besides, the “Oligonucleotide concentration in tissues, Proximal colon” value in data set [6] (200 mg oral gavage for 4 weeks) is 0.2 µg/g. The “Potency compared with ION 736697/Mongersen” value with murine Smad7 mRNA is given as “more potent than ION 736697/Mongersen”.
